Source: patent US20030134883A1, “14-Methyl-epothilones” (priority 2001, published 2003)

Key:
[1] = system: MCF-7 cancer cell line; test: Cytotoxicity in cell culture (FIG. 3), MCF-7; assay type: cell-based; conditions: MCF-7 cells, in vitro
[2] = system: NCI-ADR cancer cell line; test: Cytotoxicity in cell culture (FIG. 3), NCI-ADR; assay type: cell-based; conditions: NCI-ADR cells, in vitro
[3] = system: H460 cancer cell line; test: Cytotoxicity in cell culture (FIG. 3), H460; assay type: cell-based; conditions: H460 cells, in vitro
[4] = system: SF cancer cell line; test: Cytotoxicity in cell culture (FIG. 3), SF; assay type: cell-based; conditions: SF cells, in vitro
[5] = system: MX-1 tumor xenograft; test: MX-1 tumor xenograft in nude mice, tumor size (FIG. 1); assay type: in vivo; conditions: infusion twice daily for five days; compared with control (pharmaceutical carrier only)
[6] = Body weight of treated nude mice with MX-1 xenograft (FIG. 2); assay type: in vivo; conditions: infusion twice daily for five days; during the course of treatment

In the case of `C/C(=C\c1csc(C)n1)[C@H]1OC(=O)C[C@H](O)C(C)(C)C(=O)[C@H](C)[C@@H](O)[C@@H](C)CCC[C@@]2(C)O[C@H]2[C@H]1C` [(14S)-14-methylepothilone B], the cytotoxicity [1] is reported as “essentially inactive”, the cytotoxicity [2] is reported as “essentially inactive” and the cytotoxicity [3] is reported as “essentially inactive”. For the same compound, the cytotoxicity [4] was “essentially inactive”.
With `C/C1=C/[C@H](C)[C@@H](/C(C)=C/c2csc(C)n2)OC(=O)C[C@H](O)C(C)(C)C(=O)[C@H](C)[C@@H](O)[C@@H](C)CCC1` [(14S)-14-methylepothilone D] the cytotoxicity [1] was “cytotoxic”, the cytotoxicity [2] was “cytotoxic” and the cytotoxicity [3] was “cytotoxic”. The cytotoxicity [4] was “cytotoxic”, the “rate of tumor growth as measured by the tumor size” value [5] was “decrease in the rate of tumor growth” and the body weight [6] was “slight decrease in body weight”.
For `C/C1=C/[C@@H](C)[C@@H](/C(C)=C/c2csc(C)n2)OC(=O)C[C@H](O)C(C)(C)C(=O)[C@H](C)[C@@H](O)[C@@H](C)CCC1` [(14R)-14-methylepothilone D], the cytotoxicity [1] was “essentially inactive”, the cytotoxicity [2] was “essentially inactive” and the cytotoxicity [3] was “essentially inactive”. For the same compound, the cytotoxicity [4] was “essentially inactive”.
In the case of `C/C(=C\c1csc(C)n1)[C@H]1OC(=O)C[C@H](O)C(C)(C)C(=O)[C@H](C)[C@@H](O)[C@@H](C)CCC[C@@]2(C)O[C@H]2[C@@H]1C` [(14R)-14-methylepothilone B], the cytotoxicity [1] is reported as “cytotoxic”, the cytotoxicity [2] is reported as “cytotoxic” and the cytotoxicity [3] is reported as “cytotoxic”. The cytotoxicity [4] was “cytotoxic”.
